{
  "source": "patent US20160113932A1",
  "about": "“TREATMENT OF CANCERS USING PI3 KINASE ISOFORM MODULATORS” (INFINITY PHARMACEUTICALS, INC., priority 2013, published 2016)",
  "key": {"[1]": {"tested_on": "PI3K-δ specific basophil activation", "assay": "Anti-fCER1 BAT: PI3K-δ specific basophil activation in human whole blood", "format": "cell-based", "details": "read-out: Anti-fCER1 BAT (delta) EC50"}, "[2]": {"assay": "Absolute bioavailability / pharmacokinetics in BALB/c mice", "format": "in vivo", "details": "Mouse, PO, 10 mg/kg, suspension, calculated using AUC0-last"}, "[3]": {"assay": "Absolute bioavailability / pharmacokinetics in Sprague-Dawley rats", "format": "in vivo", "details": "Rat, PO, 10 mg/kg, suspension"}, "human P-glycoprotein": {"target": "T1, human P-glycoprotein (Homo sapiens, UniProt P08183)", "T1 construct": "assessed in vitro using Caco-2 cell monolayers; endogenous in cells; host or cells: Caco-2 cell monolayers", "T1 sequence (P08183 whole entry)": "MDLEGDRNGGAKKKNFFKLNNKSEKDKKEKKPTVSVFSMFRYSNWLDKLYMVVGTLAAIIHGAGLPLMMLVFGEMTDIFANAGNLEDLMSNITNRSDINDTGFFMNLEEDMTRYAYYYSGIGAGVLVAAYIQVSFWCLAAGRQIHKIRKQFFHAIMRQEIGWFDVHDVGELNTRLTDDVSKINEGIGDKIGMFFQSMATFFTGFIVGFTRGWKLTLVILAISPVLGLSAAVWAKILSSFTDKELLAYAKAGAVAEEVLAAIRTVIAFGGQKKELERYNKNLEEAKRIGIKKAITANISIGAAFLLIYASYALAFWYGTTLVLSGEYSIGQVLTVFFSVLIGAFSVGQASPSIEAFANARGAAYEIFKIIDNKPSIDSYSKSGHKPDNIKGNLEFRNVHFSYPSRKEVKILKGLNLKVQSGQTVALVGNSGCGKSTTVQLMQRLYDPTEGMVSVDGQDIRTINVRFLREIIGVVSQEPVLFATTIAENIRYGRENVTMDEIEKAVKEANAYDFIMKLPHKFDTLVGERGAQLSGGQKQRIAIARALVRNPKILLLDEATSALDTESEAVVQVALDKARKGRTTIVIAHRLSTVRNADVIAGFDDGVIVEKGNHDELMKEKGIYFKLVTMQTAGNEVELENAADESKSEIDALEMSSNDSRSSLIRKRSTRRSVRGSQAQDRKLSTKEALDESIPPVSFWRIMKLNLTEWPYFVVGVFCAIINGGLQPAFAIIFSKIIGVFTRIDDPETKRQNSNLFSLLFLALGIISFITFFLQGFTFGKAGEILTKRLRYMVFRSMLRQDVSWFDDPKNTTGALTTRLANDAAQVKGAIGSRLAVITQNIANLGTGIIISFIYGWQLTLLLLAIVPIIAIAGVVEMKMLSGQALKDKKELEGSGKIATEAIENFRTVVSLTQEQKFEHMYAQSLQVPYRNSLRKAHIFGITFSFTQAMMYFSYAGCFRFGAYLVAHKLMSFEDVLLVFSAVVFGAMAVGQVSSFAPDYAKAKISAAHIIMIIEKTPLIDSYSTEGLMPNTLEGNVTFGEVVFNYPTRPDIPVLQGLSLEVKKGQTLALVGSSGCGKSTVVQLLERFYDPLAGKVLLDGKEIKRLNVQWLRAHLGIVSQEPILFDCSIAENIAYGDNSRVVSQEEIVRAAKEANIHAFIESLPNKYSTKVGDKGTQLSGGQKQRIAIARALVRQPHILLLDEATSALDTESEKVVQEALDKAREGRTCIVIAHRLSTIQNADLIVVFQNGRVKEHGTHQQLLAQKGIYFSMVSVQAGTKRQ", "assay": "Interaction with human P-glycoprotein in Caco-2 cell monolayers", "format": "in vitro ADME"}, "[4]": {"tested_on": "advanced hematologic malignancies", "assay": "Phase 1 dose-escalation study in advanced hematologic malignancies: clinical response", "format": "in vivo, human"}, "[5]": {"details": "CLL/SLL, 16 treated, 11 evaluable"}, "[6]": {"details": "T-Cell Lymphoma, 7 treated, 6 evaluable"}},
  "note": "pEC50: −log10 of the molar value. Several values for one entry are separate records, joined by “and”; a condition that tells them apart may be missing. Equal entries are not always repeated. Marks after values point to notes of the source that are not given here.",
  "data": [
    {"compound": "C[C@H](Nc1ncnc2[nH]cnc12)c1cc2cccc(Cl)c2c(=O)n1-c1ccccc1", "note": "[Compound 292]", "values": [
      {"measurement": "pEC50", "setting": "[1]", "value": "7.00 to 8.00"},
      {"measurement": "Foral", "setting": "[2]", "value": "7% and 7i %"},
      {"measurement": "Foral", "setting": "[3]", "value": 57, "unit": "%"},
      {"measurement": "P-gp substrate status", "setting": "human P-glycoprotein", "value": "is a P-gp substrate"},
      {"measurement": "inhibition of active transport of other P-gp substrates", "setting": "human P-glycoprotein", "value": "has the potential to inhibit"},
      {"measurement": "responders responding by first assessment (within about 2 months)", "setting": "[4]; B cell lymphoma, 16 out of 18 responders", "value": 89, "unit": "%"},
      {"measurement": "Best Observed Response: CR", "setting": "[4]; [5]", "value": 0, "unit": "n"},
      {"measurement": "Best Observed Response: PR", "setting": "[4]; [5]", "value": 6, "unit": "n"},
      {"measurement": "Time to Response, Median (range)", "setting": "[4]; [5]", "value": "2.9 (1.8, 5.6) Months"},
      {"measurement": "Best Observed Response: SD", "setting": "[4]; CLL/SLL, 16 treated, 11 evaluable, four nodal responses", "value": "4 ^c n"},
      {"measurement": "Best Observed Response: CR", "setting": "[4]; CTCL, T/E 10/4", "value": 0, "unit": "n"},
      {"measurement": "Best Observed Response: SD", "setting": "[4]; CTCL, T/E 10/4", "value": 2, "unit": "n"},
      {"measurement": "Median Time to Response (range)", "setting": "[4]; CTCL, T/E 10/4", "value": "1.7 (—) ^ Months"},
      {"measurement": "Best Observed Response: PR", "setting": "[4]; HL, 3 treated, 2 evaluable", "value": 0, "unit": "n"},
      {"measurement": "Best Observed Response: SD", "setting": "[4]; HL, 3 treated, 2 evaluable", "value": 0, "unit": "n"},
      {"measurement": "Time to Response, Median (range)", "setting": "[4]; HL, 3 treated, 2 evaluable", "value": "1.7 (1.7, 1.7) Months"},
      {"measurement": "Best Observed Response: CR", "setting": "[4]; HL, T/E 3/3 (Table 16)", "value": "1 (33) n(%)"},
      {"measurement": "Best Observed Response: Overall", "setting": "[4]; HL, T/E 3/3 (Table 16)", "value": "1 (33) n(%)"},
      {"measurement": "Best Observed Response: PD", "setting": "[4]; HL, T/E 3/3 (Table 16)", "value": "1 (33) n(%)"},
      {"measurement": "Best Observed Response: PR", "setting": "[4]; HL, T/E 3/3 (Table 16)", "value": "0 n(%)"},
      {"measurement": "Best Observed Response: SD", "setting": "[4]; HL, T/E 3/3 (Table 16)", "value": "1 (33) n(%)"},
      {"measurement": "Median Time to Rsp (Range)", "setting": "[4]; HL, T/E 3/3 (Table 16)", "value": 1.7, "unit": "Months"},
      {"measurement": "Best Observed Response: CR", "setting": "[4]; MCL, 4 treated, 3 evaluable", "value": 0, "unit": "n"},
      {"measurement": "Best Observed Response: PR", "setting": "[4]; MCL, 4 treated, 3 evaluable", "value": 2, "unit": "n"},
      {"measurement": "Best Observed Response: SD", "setting": "[4]; MCL, 4 treated, 3 evaluable", "value": 0, "unit": "n"},
      {"measurement": "Time to Response, Median (range)", "setting": "[4]; MCL, 4 treated, 3 evaluable", "value": "1.9 (1.9, 1.9) Months"},
      {"measurement": "responses", "setting": "[4]; MCL, 11 evaluable patients, 8, 15 and 25 mg BID", "value": "1/1"},
      {"measurement": "Best Observed Response: CR", "setting": "[4]; MCL, T/E 9/6 (Table 16)", "value": "1 (17) n(%)"},
      {"measurement": "Best Observed Response: Overall", "setting": "[4]; MCL, T/E 9/6 (Table 16)", "value": "4 (67) n(%)"},
      {"measurement": "Best Observed Response: PD", "setting": "[4]; MCL, T/E 9/6 (Table 16)", "value": "1 (17) n(%)"},
      {"measurement": "Best Observed Response: PR", "setting": "[4]; MCL, T/E 9/6 (Table 16)", "value": "3 (50) n(%)"},
      {"measurement": "Best Observed Response: SD", "setting": "[4]; MCL, T/E 9/6 (Table 16)", "value": "1 (17) n(%)"},
      {"measurement": "Median Time to Rsp (Range)", "setting": "[4]; MCL, T/E 9/6 (Table 16)", "value": "1.8 (1.6-1.9) Months"},
      {"measurement": "Best Observed Response: CR", "setting": "[4]; MM, 3 treated, 3 evaluable", "value": 0, "unit": "n"},
      {"measurement": "Best Observed Response: PD", "setting": "[4]; MM, 3 treated, 3 evaluable", "value": 2, "unit": "n"},
      {"measurement": "Best Observed Response: PR", "setting": "[4]; MM, 3 treated, 3 evaluable", "value": 0, "unit": "n"},
      {"measurement": "Best Observed Response: PD", "setting": "[4]; PTCL, T/E 7/5", "value": 3, "unit": "n"},
      {"measurement": "Best Observed Response: SD", "setting": "[4]; PTCL, T/E 7/5", "value": 0, "unit": "n"},
      {"measurement": "Median Time to Response (range)", "setting": "[4]; PTCL, T/E 7/5", "value": "2.3 (1.9-2.7) Months"},
      {"measurement": "patients with at least 50% tumor response", "setting": "[4]; T cell lymphoma (2 PTCL and 1 CTCL), CT scans", "value": "33 % of the patients"},
      {"measurement": "Best Observed Response: PD", "setting": "[4]; [6]", "value": 3, "unit": "n"},
      {"measurement": "Time to Response, Median (range)", "setting": "[4]; [6]", "value": "2.4 (1.8, 3.1) Months"},
      {"measurement": "Best Observed Response: PD", "setting": "[4]; TCL Total, T/E 17/9 (Table 15)", "value": 4, "unit": "n"},
      {"measurement": "Best Observed Response: PR", "setting": "[4]; TCL Total, T/E 17/9 (Table 15)", "value": 2, "unit": "n"},
      {"measurement": "Best Observed Response: SD", "setting": "[4]; TCL Total, T/E 17/9 (Table 15)", "value": 2, "unit": "n"},
      {"measurement": "Median Time to Response (range)", "setting": "[4]; TCL Total, T/E 17/9 (Table 15)", "value": "1.9 (1.7-2.7) Months"},
      {"measurement": "Best Observed Response: CR", "setting": "[4]; aNHL, 5 treated, 3 evaluable", "value": 0, "unit": "n"},
      {"measurement": "Best Observed Response: PD", "setting": "[4]; aNHL, 5 treated, 3 evaluable", "value": 2, "unit": "n"},
      {"measurement": "Best Observed Response: PR", "setting": "[4]; aNHL, 5 treated, 3 evaluable", "value": 0, "unit": "n"},
      {"measurement": "Best Observed Response: CR", "setting": "[4]; aNHL, T/E 13/10 (Table 16)", "value": "0 n(%)"},
      {"measurement": "Best Observed Response: Overall", "setting": "[4]; aNHL, T/E 13/10 (Table 16)", "value": "0 n(%)"},
      {"measurement": "Best Observed Response: PD", "setting": "[4]; aNHL, T/E 13/10 (Table 16)", "value": "6 (60) n(%)"},
      {"measurement": "Best Observed Response: PR", "setting": "[4]; aNHL, T/E 13/10 (Table 16)", "value": "0 n(%)"},
      {"measurement": "Best Observed Response: SD", "setting": "[4]; aNHL, T/E 13/10 (Table 16)", "value": "4 (40) n(%)"},
      {"measurement": "Best Observed Response: PR", "setting": "[4]; iNHL, 17 treated, 13 evaluable", "value": 7, "unit": "n"},
      {"measurement": "Time to Response, Median (range)", "setting": "[4]; iNHL, 17 treated, 13 evaluable", "value": "1.8 (1.7, 2.8) Months"},
      {"measurement": "Best Observed Response: CR", "setting": "[4]; iNHL, T/E 26/19 (Table 16)", "value": "3 (16) n(%)"},
      {"measurement": "Best Observed Response: MR (Minor Response for Waldenstrom's)", "setting": "[4]; iNHL, T/E 26/19 (Table 16)", "value": "1 (5) n(%)"},
      {"measurement": "Best Observed Response: Overall", "setting": "[4]; iNHL, T/E 26/19 (Table 16)", "value": "13 (68) n(%)"},
      {"measurement": "Best Observed Response: PD", "setting": "[4]; iNHL, T/E 26/19 (Table 16)", "value": "2 (11) n(%)"},
      {"measurement": "Best Observed Response: PR", "setting": "[4]; iNHL, T/E 26/19 (Table 16)", "value": "10 (53) n(%)"},
      {"measurement": "Best Observed Response: SD", "setting": "[4]; iNHL, T/E 26/19 (Table 16)", "value": "3 (16) n(%)"},
      {"measurement": "Median Time to Rsp (Range)", "setting": "[4]; iNHL, T/E 26/19 (Table 16)", "value": "1.8 (1.7-4.1) Months"}
    ]}
  ]
}
